According to US12109224B2, “USB1 directed regulation of miRNAs related hematopoietic differentiation and affected in multiple forms of leukemia” (The Regents of the University of Colorado, a body corporate, priority 2020, dated 2024):

Legend:
Type in all cases: cell-based, human
USB1 mutant cells [1] = test: miRNA levels by qRT-PCR in USB1 mutant cells; conditions: normalized to 5s rRNA; RG7834 (104) vs DMSO; FIG. 4A
[2] = system: USB1 c.531delA CD34+/CD45+ cells; test: Flow cytometry of hematopoietic CD34+/CD45+ progenitor cells; conditions: RG7834 0.5 μM; FIG. 10B
Method: (§1) Hematopoietic differentiation: Definitive hematopoietic differentiation from hESCs was performed as previously described (14). Briefly, hESCs were cultured on Matrigel (BD Bioscience) for 1 day to deplete MEFs. On Day 0, cells were dissociated with 0.05% trypsin (Gibco) for 1 min and incubated with serumfree media [SFD: IMDM supplemented with 25% Hams F12, 0.05% BSA, 1× B27 supplement (Gibco), 0.5× N2 supplement (Gibco), 2 mM L-glutamine (Gibco), 50 μg/ml ascorbic acid (Gibco), 4×10−4 M monothioglycerol (Millipore Sigma), and 150 μg/ml transferrin] supplemented with 10 ng/ml BMP4 on 6 well plates coated with a 5% poly(2-hydroxyethyl methacrylate) solution (Millipore Sigma). On Day 1, one additional volume of SFD was added, containing 10 ng/ml BMP4 and 5 ng/ml bFGF. On Day 2, media was changed to fresh SFD supplemented with 10 ng/ml BMP4, 5 ng/ml bFGF, 3 μM CHIR99021, and 6 μM SB-431542. On Day 3, media was changed to StemPro-34 media [SP-34: StemPro-34 supplemented with 2 mM L-glutamine (Gibco), 1 mM ascorbic acid (Gibco), 4×10−4M monothioglycerol, 150 μg/ml transferrin] supplemented with 15 ng/ml VEGF and 5 ng/ml bFGF. On Day 6, one additional volume of SP-34 supplemented with 15 ng/ml VEGF, 5 ng/ml bFGF, 20 ng/ml IL-6, 50 ng/ml IGF1, 10 ng/ml IL-11, 200 ng/ml SCF, and 4 IU EPO was added. […]

USB1 mutant cells [3] = test: Flow cytometry following neutrophil differentiation; conditions: CD45+CD14-CD11b+CD16 cells; FIG. 4F
Method: Flow cytometry and Cell sorting: Flow cytometry analysis was performed using the BD LSR Fortessa and FACS sorting by BD FACS Aria II at the Department of Pathology & Immunology Flow Cytometry Core at Washington University in St. Louis. The antibodies were used as follows; KDR (clone 89106), CD235a-APC (clone HIR2), CD34-APC (clone 8G12), CD34-PE-Cy7 (clone 4H11), CD43-PE or -FITC (clone 1G10), CD73-PE (clone AD2), CD184-APC (clone 12G5), CD45-PE (clone HI30), CD14-PE Cy7 (clone MφP9), CD15-BV421 (W6D3), CD66b-FITC (clone G10F5). All antibodies were purchased from BD Biosciences, but CD15 and CD66b were obtained from BioLegend. For cell cycle analysis, Click-iT EdU Alexa Fluor 488 kit (Life Technologies) was used following manufacturer's instructions.

USB1 mutant cells [4] = test: Colony forming culture (CFC) assay of definitive hematopoietic progenitors; conditions: chemical inhibition of PAPD5; RG7834 0.5 μM vs DMSO; FIG. 4E
Method: as §1

[5] = system: undifferentiated USB1 mutant cells; test: 3′ end sequencing of miR-125a-5p in undifferentiated USB1 mutant cells; conditions: RG7834 1 μM, FIG. 4B
Method: 3′ end library preparation and analysis: 3′ end libraries were prepared as previously described (23, 41). Briefly, 30 ng of DNA-free rRNA-depleted RNA was treated with Antarctic Phosphatase (NEB), and two RNA appendices containing a unique barcode were ligated to equal amount of the input RNA using T4 RNA Ligase I (NEB). Reactions were cleaned up using RNA clean & concentrator kit (Zymo Research) and cDNA was prepared using an RNA appendix-specific primer and Superscript III RT (Invitrogen). cDNA was used as a template for […] using a miRNA-specific reverse primer containing a barcode, a universal primer and Phusion HF DNA polymerase (NEB). RACE products were separated on a 1% Agarose TAE gel, 100-180 bp DNA fragments were excised and DNA was eluted. Illumina-compatible libraries were prepared by amplifying RACE product using Illumina primers, and sequenced on a HiSeq lane (Illumina) using the 2×150 kit. Libraries were demultiplexed and unique reads aligning to the exact miRNA sequence were quantified. miRNA 3′ ends were obtained from miRbase v22.

COCCCOc1cc2c(cc1OC)-c1cc(=O)c(C(=O)O)cn1[C@H](C(C)C)C2 [RG7834]
levels of miRNAs that were reduced in USB1 mutant cells (USB1 mutant cells [1]): rescued | hematopoietic CD34+/CD45+ progenitor cells [2]: increase | neutrophil formation in USB1 mutant cells (USB1 mutant cells [3]): improved | colony-formation potential in USB1 mutants (USB1 mutant cells [4]): rescued | non-adenylated form of miR-125a-5p [5]: increase | oligoadenylated miR-125a-5p [5]: decrease
